# In patent US12187709B2 (Genentech, Inc., priority 2021, dated 2025):
# Columns and labels:
# [1] = target: c-Cbl (Homo sapiens (Human), UniProt P22681); experiment: C-Cbl LCK Ub TR-FRET assay (C-cbl Lck HTRF); type: biochemical
# How it was run: (§1)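 Detection reagents added, brief spin, 20 min RT. IC50 fit normalized to no-LCK (low) and DMSO (high) controls.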
# [2] = target: Cbl-b (Homo sapiens (Human), UniProt Q13191); experiment: Cbl-b LCK Ub TR-FRET assay (Cbl-b Lck HTRF); type: biochemical; conditions: for IC50: Cbl-b LCK Ub TR-FRET; for fold-selectivity (Cbl-b over C-cbl) / (fold-selectivity) Cbl-b and C-Cbl Selectivity: ratio C-cbl Lck HTRF IC50 / Cbl-b Lck HTRF IC50
# How it was run: as §1
# Sequence of c-Cbl (P22681 47-435): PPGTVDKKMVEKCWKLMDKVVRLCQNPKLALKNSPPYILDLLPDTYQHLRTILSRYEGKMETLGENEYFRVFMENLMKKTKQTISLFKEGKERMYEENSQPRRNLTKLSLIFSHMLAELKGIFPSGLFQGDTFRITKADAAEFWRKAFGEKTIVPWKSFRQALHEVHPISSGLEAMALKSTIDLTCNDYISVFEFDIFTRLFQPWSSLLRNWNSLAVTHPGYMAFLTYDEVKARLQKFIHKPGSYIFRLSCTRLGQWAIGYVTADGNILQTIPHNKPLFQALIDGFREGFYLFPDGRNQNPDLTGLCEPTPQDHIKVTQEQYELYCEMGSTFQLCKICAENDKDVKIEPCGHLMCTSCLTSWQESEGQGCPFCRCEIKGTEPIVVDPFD
# Sequence of Cbl-b (Q13191 40-426): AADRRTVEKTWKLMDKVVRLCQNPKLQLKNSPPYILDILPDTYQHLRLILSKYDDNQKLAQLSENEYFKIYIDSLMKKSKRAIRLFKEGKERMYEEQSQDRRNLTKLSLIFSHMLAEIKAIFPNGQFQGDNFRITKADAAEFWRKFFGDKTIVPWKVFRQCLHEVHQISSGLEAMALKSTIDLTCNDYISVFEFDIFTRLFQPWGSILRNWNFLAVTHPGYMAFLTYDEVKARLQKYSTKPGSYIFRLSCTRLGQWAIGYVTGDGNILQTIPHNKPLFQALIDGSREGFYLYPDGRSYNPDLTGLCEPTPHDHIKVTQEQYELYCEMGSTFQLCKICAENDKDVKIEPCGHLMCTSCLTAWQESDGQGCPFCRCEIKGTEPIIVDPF
Compound,IC50 [1] [µM],IC50 [2] [µM],fold-selectivity (Cbl-b over C-cbl) [2],IC50 ([2]; Example 121) [µM],(fold-selectivity) Cbl-b and C-Cbl Selectivity [2] [x]
"CCOc1cc([C@]2(c3nncn3C)C[C@H](OC)C2)cc(N2Cc3c(cc(CNC4(C)CCC4)cc3C(F)(F)F)C2=O)n1 [Compound 77, 2-(6-ethoxy-4-((1R,3R)-3-methoxy-1-(4-methyl-4H-1,2,4-triazol-3-yl)cyclobutyl)pyridin-2-yl)-6-(((1-methylcyclobutyl)amino)methyl)-4-(trifluoromethyl)isoindolin-1-one]",0.0082,0.0082,(1.0x),,
"Cn1cnnc1[C@H](c1cccc(N2Cc3c(cc(CNC4(C)CCC4)cc3C(F)(F)F)C2=O)c1)C1COC1 (single isomer, unassigned) [Compound 165]",10,3.9,2.3 x,,
"Cn1cnnc1[C@@H](OC1CCC1)c1cccc(N2Cc3c(cc(CNC4(C)CCC4)cc3C(F)(F)F)C2=O)c1 (single isomer, unassigned) [Compound 46]",20,≥ 20,(1.0x),,
"Cn1cnnc1[C@H](c1cccc(N2Cc3c(cc(CNC4(C)CCC4)cc3C(F)(F)F)C2=O)c1)C1CC2(COC2)C1 [Compound 121, (S)-2-(3-((4-methyl-4H-1,2,4-triazol-3-yl)(2-oxaspiro[3.3]heptan-6-yl)methyl)phenyl)-6-(((1-methylcyclobutyl)amino)methyl)-4-(trifluoromethyl)isoindolin-1-one]",20,11,1.7x,,
"CC(C)[C@H]1CN(C)CCN1Cc1cc2c(c(C(F)(F)F)c1)CN(c1cccc(C3(c4nncn4C)CC4(COC4)C3)c1)C2=O [Compound 41, (S)-6-((2-isopropyl-4-methylpiperazin-1-yl)methyl)-2-(3-(6-(4-methyl-4H-1,2,4-triazol-3-yl)-2-oxaspiro[3.3]heptan-6-yl)phenyl)-4-(trifluoromethyl)isoindolin-1-one]",0.059,0.021,(2.8x),,
"Cn1cnnc1[C@@H](c1cccc(N2Cc3c(cc(CNC4(C)CCC4)cc3C(F)(F)F)C2=O)c1)C1(O)COC1 (single isomer, unassigned) [Compound 146]",9.2,4,2.3x,,
"Cn1cnnc1[C@@H](c1cccc(N2Cc3c(cc(CNC4(C)CCC4)cc3C(F)(F)F)C2=O)c1)C1CC2(COC2)C1 [Compound 122, (R)-2-(3-((4-methyl-4H-1,2,4-triazol-3-yl)(2-oxaspiro[3.3]heptan-6-yl)methyl)phenyl)-6-(((1-methylcyclobutyl)amino)methyl)-4-(trifluoromethyl)isoindolin-1-one]",2.1,1.4,1.6x,,
"Cn1cnnc1C1(c2cccc(N3Cc4c(cc(CNC5(C)CCC5)cc4C(F)(F)F)C3=O)c2)CC2(CN(S(C)(=O)=O)C2)C1 [Compound 98, 2-(3-(6-(4-methyl-4H-1,2,4-triazol-3-yl)-2-(methylsulfonyl)-2-azaspiro[3.3]heptan-6-yl)phenyl)-6-(((1-methylcyclobutyl)amino)methyl)-4-(trifluoromethyl)isoindolin-1-one]",7.5,1.3,5.8x,,

# Second part, the compound after the results:
IC50 [1] [µM],IC50 [2] [µM],fold-selectivity (Cbl-b over C-cbl) [2],IC50 ([2]; Example 121) [µM],(fold-selectivity) Cbl-b and C-Cbl Selectivity [2] [x],Compound
0.72,,,0.1,7.2,"CO[C@H]1C[C@](c2cccc(N3Cc4c(cc(CN5CCCCC5)cc4C(F)(F)F)C3=O)c2)(c2nncn2C)C1 [Compound 420, 2-(3-((1r,3r)-3-methoxy-1-(4-methyl-4H-1,2,4-triazol-3-yl)cyclobutyl)phenyl)-6-(piperidin-1-ylmethyl)-4-(trifluoromethyl)isoindolin-1-one]"
20,,,≥ 20,1.0,"CC1(NCc2cc3c(c(C(F)(F)F)c2)CN(c2cccc([C@H](C4COC4)n4ccnn4)c2)C3=O)CCC1 (single isomer, unassigned) [Compound 437]"
0.4,,,0.066,6.0,"CC1(NCc2cc3c(c(C(F)(F)F)c2)CN(c2cccc([C@H](c4nnc[nH]4)C4COC4)c2)C3=O)CCC1 (single isomer, unassigned) [Compound 440]"
0.48,0.14,3.5x,,,"CC[C@H](c1cccc(N2Cc3c(Cl)cc(CNC4(C)CCC4)cc3C2=O)c1)c1nncn1C (single isomer, unassigned) [Compound 358]"
3.8,2.5,1.5x,,,"Cn1cnnc1[C@@H](c1cccc(N2Cc3c(cc(CNC4(C)CCC4)cc3C(F)(F)F)C2=O)c1)C1CCS(=O)(=O)CC1 [Compound 299, (R)-2-(3-((1,1-dioxidotetrahydro-2H-thiopyran-4-yl)(4-methyl-4H-1,2,4-triazol-3-yl)methyl)phenyl)-6-(((1-methylcyclobutyl)amino)methyl)-4-(trifluoromethyl)isoindolin-1-one]"
15,,,4.5,3.4,"Cn1cnnc1[C@@](O)(c1ccccc1)c1cccc(N2Cc3c(Cl)cc(CNC4(C)CCC4)cc3C2=O)c1 (single isomer, unassigned) [Compound 410]"
0.39,0.34,1.2x,,,"CO[C@H]1C[C@@](c2cc(C)cc(N3Cc4c(cc(CNC5(C)CCC5)cc4C(F)(F)F)C3=O)c2)(c2nncn2C)C1 [Compound 237, 2-(3-((1s,3s)-3-methoxy-1-(4-methyl-4H-1,2,4-triazol-3-yl)cyclobutyl)-5-methylphenyl)-6-(((1-methylcyclobutyl)amino)methyl)-4-(trifluoromethyl)isoindolin-1-one]"
2.7,1.7,1.6x,,,"Cn1cnnc1[C@H](CC1CCC1)c1cccc(N2Cc3c(cc(CNC4(C)CCC4)cc3C(F)(F)F)C2=O)c1 [Compound 268, (R)-2-(3-(2-cyclobutyl-1-(4-methyl-4H-1,2,4-triazol-3-yl)ethyl)phenyl)-6-(((1-methylcyclobutyl)amino)methyl)-4-(trifluoromethyl)isoindolin-1-one]"
0.17,0.1,1.7x,,,"Cn1cnnc1[C@H](c1cccc(N2Cc3c(cc(CNC4(C)CCC4)cc3C(F)(F)F)C2=O)c1)C1CC(OC(F)(F)F)C1 (single isomer, unassigned) [Compound 396]"
0.99,0.76,1.3x,,,"Cn1cnnc1[C@@H](CC1(C)COC1)c1cccc(N2Cc3c(cc(CNC4(C)CCC4)cc3C(F)(F)F)C2=O)c1 [Compound 255, (S)-2-(3-(1-(4-methyl-4H-1,2,4-triazol-3-yl)-2-(3-methyloxetan-3-yl)ethyl)phenyl)-6-(((1-methylcyclobutyl)amino)methyl)-4-(trifluoromethyl)isoindolin-1-one]"
17,8.7,2.0x,,,"Cn1cnnc1[C@H](c1cccc(N2Cc3c(cc(CNC4(C)CCC4)cc3C(F)(F)F)C2=O)c1)C1CCS(=O)(=O)CC1 [Compound 300, (S)-2-(3-((1,1-dioxidotetrahydro-2H-thiopyran-4-yl)(4-methyl-4H-1,2,4-triazol-3-yl)methyl)phenyl)-6-(((1-methylcyclobutyl)amino)methyl)-4-(trifluoromethyl)isoindolin-1-one]"
